Among the data in patent US10730874B2 (Shire Human Genetic Therapies, Inc., priority 2018, dated 2020) are EC50 values, retold here.

As usually defined, the pEC50 is the negative decadic logarithm of the EC50, by convention in mol/L.

Molecules are shown by their SMILES. pEC50: −log10 of the molar value. Where only a bound is given, the exact number is not on record here.

Chain of human activated kallikrein enzyme (plasma kallikrein) (P03952 391-638): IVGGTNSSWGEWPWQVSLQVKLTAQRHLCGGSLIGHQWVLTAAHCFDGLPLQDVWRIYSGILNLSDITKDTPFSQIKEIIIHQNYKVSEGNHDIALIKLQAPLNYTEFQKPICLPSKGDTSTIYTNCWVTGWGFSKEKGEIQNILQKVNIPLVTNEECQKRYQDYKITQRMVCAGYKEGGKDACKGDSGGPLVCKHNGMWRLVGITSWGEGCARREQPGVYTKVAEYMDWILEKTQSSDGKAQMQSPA
Chain of human activated kallikrein enzyme (plasma kallikrein) (P03952 20-390 partner): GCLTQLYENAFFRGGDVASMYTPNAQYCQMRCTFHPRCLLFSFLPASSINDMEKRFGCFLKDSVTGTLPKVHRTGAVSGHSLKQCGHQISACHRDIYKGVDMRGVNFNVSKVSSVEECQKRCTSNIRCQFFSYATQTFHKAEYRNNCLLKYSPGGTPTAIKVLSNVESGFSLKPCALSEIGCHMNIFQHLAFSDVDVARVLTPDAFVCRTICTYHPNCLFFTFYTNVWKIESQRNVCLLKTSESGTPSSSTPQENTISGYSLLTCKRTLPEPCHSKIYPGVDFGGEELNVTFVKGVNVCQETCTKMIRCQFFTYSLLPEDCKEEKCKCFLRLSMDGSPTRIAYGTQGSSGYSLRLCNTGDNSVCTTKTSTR

The assay concerns the target human activated kallikrein enzyme (plasma kallikrein) (Homo sapiens (Human), UniProt P03952). The assay is described as follows: Inhibition of human activated plasma kallikrein, fluorogenic peptide substrate assay, 500 pM enzyme format. The following applies: 500 pM activated kallikrein enzyme, 300 uM Pro-Phe-Arg-7-amido-4-methylcoumarin substrate, 30 min preincubation, 10 min at RT; read-out: Primary Dose Response Assay: Average EC50. The format is biochemical. The method, boiled down:
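Buffer 20 mM Tris pH 7.5, EDTA, NaCl, PEG-400, Triton X-100; 300 uM Pro-Phe-Arg-AMC; enzyme–inhibitor preincubation 30 min RT. Format one: 500 pM kallikrein, 10 min RT reaction; format two: 5 pM kallikrein, 18 h RT reaction. Fluorescence read at 460 nm (380 nm excitation).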
Regarding `O=C(NCc1ncn2ccc(Cl)cc12)c1cnn(Cc2cn3c(Cl)c(Br)ccc3n2)c1` [Example I-39, 1-((6-bromo-5-chloroimidazo[1,2-a]pyridin-2-yl)methyl)-N-((7-chloroimidazo[1,5-a]pyridin-1-yl)methyl)-1H-pyrazole-4-carboxamide], the pEC50 was 8.00 to 9.00.
With `O=C(NCc1ncn2ccc(Br)cc12)c1cnn(Cc2cn3cc(C4CC4)c(Cl)cc3n2)c1` [Example I-25, N-((7-bromoimidazo[1,5-a]pyridin-1-yl)methyl)-1-((7-chloro-6-cyclopropylimidazo[1,2-a]pyridin-2-yl)methyl)-1H-pyrazole-4-carboxamide] the figure was 8.00 to 9.00; with `O=C(NCc1ncn2ccc(Cl)c(F)c12)c1nnn(Cc2cn3cc(C4CC4)ccc3n2)n1` [Example I-283, N-((7-chloro-8-fluoroimidazo[1,5-a]pyridin-1-yl)methyl)-2-((6-cyclopropylimidazo[1,2-a]pyridin-2-yl)methyl)-2H-tetrazole-5-carboxamide], greater than 9.00; with `O=C(NCc1ncn2ccc(Cl)c(F)c12)c1cn(Cc2cn3cc(C4CC4)cc(CNCC(O)C(F)(F)F)c3n2)nn1` (centres unmarked) [Example I-300, N-((7-chloro-8-fluoroimidazo[1,5-a]pyridin-1-yl)methyl)-1-((6-cyclopropyl-8-(((3,3,3-trifluoro-2-hydroxypropyl)amino)methyl)imidazo[1,2-a]pyridin-2-yl)methyl)-1H-1,2,3-triazole-4-carboxamide], greater than 9.00.
For the compound `O=C(NCc1ncn2ccc(Cl)c(F)c12)c1cn(Cc2cn3cc(C4CC4)cc(CC4COC4)c3n2)nn1` [Example I-186, N-((7-chloro-8-fluoroimidazo[1,5-a]pyridin-1-yl)methyl)-1-((6-cyclopropyl-8-(oxetan-3-ylmethyl)imidazo[1,2-a]pyridin-2-yl)methyl)-1H-1,2,3-triazole-4-carboxamide], the negative-log EC50 (pEC50) was greater than 9.00.
The result for `O=C(NCc1ncn2ccc(Cl)c(F)c12)c1cn(Cc2cn3nc(C4CC4)cc(N4CC(C(=O)O)C4)c3n2)nn1` [Example I-265b, 1-(2-((4-(((7-chloro-8-fluoroimidazo[1,5-a]pyridin-1-yl)methyl)carbamoyl)-1H-1,2,3-triazol-1-yl)methyl)-6-cyclopropylimidazo[1,2-b]pyridazin-8-yl)azetidine-3-carboxylic acid] reads greater than 9.00.
With `O=C(NCc1ncn2ccc(Cl)c(F)c12)c1nnn(Cc2cn3nc(C4CC4)ccc3n2)n1` [Example I-289, N-((7-chloro-8-fluoroimidazo[1,5-a]pyridin-1-yl)methyl)-2-((6-cyclopropylimidazo[1,2-b]pyridazin-2-yl)methyl)-2H-tetrazole-5-carboxamide] the figure was greater than 9.00; with `CCOC(=O)c1cc(C2CC2)cn2cc(Cn3cc(C(=O)NCc4ncn5ccc(Cl)cc45)cn3)nc12` [Example I-71, ethyl 2-((4-(((7-chloroimidazo[1,5-a]pyridin-1-yl)methyl)carbamoyl)-1H-pyrazol-1-yl)methyl)-6-cyclopropylimidazo[1,2-a]pyridine-8-carboxylate], greater than 9.00.
As for `O=C(NCc1ncn2ccc(Cl)c(F)c12)c1cn(Cc2cn3cc(C4CC4)ccc3n2)nn1` [Example I-148, N-((7-chloro-8-fluoroimidazo[1,5-a]pyridin-1-yl)methyl)-1-((6-cyclopropylimidazo[1,2-a]pyridin-2-yl)methyl)-1H-1,2,3-triazole-4-carboxamide], the pEC50 was greater than 9.00.
The result for `N#Cc1cccc2nc(Cn3cc(C(=O)NCc4ncn5ccc(Cl)cc45)cn3)cn12` [Example I-54, N-((7-chloroimidazo[1,5-a]pyridin-1-yl)methyl)-1-((5-cyanoimidazo[1,2-a]pyridin-2-yl)methyl)-1H-pyrazole-4-carboxamide] reads 7.00 to 8.00; that for `CC1(C)CC1c1ccn2cc(Cn3cc(C(=O)NCc4ncn5ccc(Br)cc45)cn3)nc2c1` (centres unmarked) [Example I-49, N-((7-bromoimidazo[1,5-a]pyridin-1-yl)methyl)-1-((7-(2,2-dimethylcyclopropyl)imidazo[1,2-a]pyridin-2-yl)methyl)-1H-pyrazole-4-carboxamide], 7.00 to 8.00; that for `O=C(NCc1ncn2ccc(Cl)cc12)c1cnn(Cc2cn3cc(Br)c(Cl)cc3n2)c1` [Example I-36, 1-((6-bromo-7-chloroimidazo[1,2-a]pyridin-2-yl)methyl)-N-((7-chloroimidazo[1,5-a]pyridin-1-yl)methyl)-1H-pyrazole-4-carboxamide], 7.00 to 8.00.
Take `O=C(NCc1ncn2ccc(Cl)c(F)c12)c1cnn(Cc2cn3cc(C4CC4)cc(C4COC4)c3n2)c1` [Example I-215, N-((7-chloro-8-fluoroimidazo[1,5-a]pyridin-1-yl)methyl)-1-((6-cyclopropyl-8-(oxetan-3-yl)imidazo[1,2-a]pyridin-2-yl)methyl)-1H-pyrazole-4-carboxamide]: the pEC50 is greater than 9.00.
The result for `O=C(NCc1ncn2ccc(Cl)c(F)c12)c1cn(Cc2cn3cc(C4CC4)cc(CC4(C(=O)O)CCCC4)c3n2)nn1` [Example I-221b, 1-((2-((4-(((7-chloro-8-fluoroimidazo[1,5-a]pyridin-1-yl)methyl)carbamoyl)-1H-1,2,3-triazol-1-yl)methyl)-6-cyclopropylimidazo[1,2-a]pyridin-8-yl)methyl)cyclopentane-1-carboxylic acid] reads greater than 9.00.
In the case of `O=C(NCc1ncn2ccc(Br)cc12)c1cnn(Cc2cc3cc(C4CC4)ccn3n2)c1` [Example I-56, N-((7-bromoimidazo[1,5-a]pyridin-1-yl)methyl)-1-((5-cyclopropylpyrazolo[1,5-a]pyridin-2-yl)methyl)-1H-pyrazole-4-carboxamide], the pEC50 is 8.00 to 9.00.
The result for `O=C(NCc1ncn2ccc(Cl)cc12)c1cnn(Cc2cn3cc(C4CC4)c(F)cc3n2)c1` [Example I-21, N-((7-chloroimidazo[1,5-a]pyridin-1-yl)methyl)-1-((6-cyclopropyl-7-fluoroimidazo[1,2-a]pyridin-2-yl)methyl)-1H-pyrazole-4-carboxamide] reads 8.00 to 9.00; that for `O=C(NCc1ncn2ccc(Cl)cc12)c1noc(Cc2cn3cc(C4CC4)ccc3n2)n1` [Example I-177, N-((7-chloroimidazo[1,5-a]pyridin-1-yl)methyl)-5-((6-cyclopropylimidazo[1,2-a]pyridin-2-yl)methyl)-1,2,4-oxadiazole-3-carboxamide], 8.00 to 9.00.
With `CCc1ccn2cnc(CNC(=O)c3cnn(Cc4cn5cc(C6CC6)ccc5n4)c3)c2c1` [Example I-67, 1-((6-cyclopropylimidazo[1,2-a]pyridin-2-yl)methyl)-N-((7-ethylimidazo[1,5-a]pyridin-1-yl)methyl)-1H-pyrazole-4-carboxamide] the figure was 7.00 to 8.00; with `O=C(O)CCn1c(Cn2cc(C(=O)NCc3ncn4ccc(Cl)c(F)c34)nn2)cc2cc(C3CC3)ccc21` [Example I-251b, 3-(2-((4-(((7-chloro-8-fluoroimidazo[1,5-a]pyridin-1-yl)methyl)carbamoyl)-1H-1,2,3-triazol-1-yl)methyl)-5-cyclopropyl-1H-indol-1-yl)propanoic acid], greater than 9.00.
In the case of `COC(=O)c1c(Cn2cc(C(=O)NCc3ncn4ccc(Cl)c(F)c34)nn2)[nH]c2cc(C3CC3)ccc12` [Example I-272, methyl 2-((4-(((7-chloro-8-fluoroimidazo[1,5-a]pyridin-1-yl)methyl)carbamoyl)-1H-1,2,3-triazol-1-yl)methyl)-6-cyclopropyl-1H-indole-3-carboxylate], the pEC50 was greater than 9.00.
The result for `O=C(NCc1ncn2ccc(Br)c(F)c12)c1nnn(Cc2cn3cc(C4CC4)ccc3n2)n1` [Example I-135, N-((7-bromo-8-fluoroimidazo[1,5-a]pyridin-1-yl)methyl)-2-((6-cyclopropylimidazo[1,2-a]pyridin-2-yl)methyl)-2H-tetrazole-5-carboxamide] reads greater than 9.00; that for `O=C(NCc1ncn2ccc(Br)c(F)c12)c1cn(Cc2cn3cc(C4CC4)ccc3n2)nn1` [Example I-134, N-((7-bromo-8-fluoroimidazo[1,5-a]pyridin-1-yl)methyl)-1-((6-cyclopropylimidazo[1,2-a]pyridin-2-yl)methyl)-1H-1,2,3-triazole-4-carboxamide], greater than 9.00; that for `CNc1cccc2nc(Cn3cc(C(=O)NCc4ncn5ccc(Cl)cc45)cn3)cn12` [Example I-77, N-((7-chloroimidazo[1,5-a]pyridin-1-yl)methyl)-1-((5-(methylamino)imidazo[1,2-a]pyridin-2-yl)methyl)-1H-pyrazole-4-carboxamide], 7.00 to 8.00.
With `CC(C)c1ccc2nc(Cn3cc(C(=O)NCc4ncn5ccc(Cl)cc45)cn3)cn2c1` [Example I-8, N-((7-chloroimidazo[1,5-a]pyridin-1-yl)methyl)-1-((6-isopropylimidazo[1,2-a]pyridin-2-yl)methyl)-1H-pyrazole-4-carboxamide] the figure was greater than 9.00.
With `O=C(NCc1ncn2ccc(Cl)c(F)c12)c1cn(Cc2cc3cc(C4CC4)cnc3s2)nn1` [Example I-189, N-((7-chloro-8-fluoroimidazo[1,5-a]pyridin-1-yl)methyl)-1-((5-cyclopropylthieno[2,3-b]pyridin-2-yl)methyl)-1H-1,2,3-triazole-4-carboxamide] the figure was greater than 9.00; with `O=C(NCc1ncn2ccc(Cl)c(F)c12)c1cn(Cc2cn3cc(C4CC4)cc(-c4nn[nH]n4)c3n2)nn1` [Example I-174, N-((7-chloro-8-fluoroimidazo[1,5-a]pyridin-1-yl)methyl)-1-((6-cyclopropyl-8-(2H-tetrazol-5-yl)imidazo[1,2-a]pyridin-2-yl)methyl)-1H-1,2,3-triazole-4-carboxamide], greater than 9.00.
